Laboratory results: the supplement of paper PMC11061612

What was measured:
Experiment in all cases: combination Emax (second highest fraction inhibited in the dose matrix, 72 h); higher = more inhibition; extreme values may be limits of the assay
[1] = system: EW-3 (Ewing's Sarcoma)
Outline: (§1)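 After 24 hours at 37°C and 5% CO2 in 1536-well plates, cells in DMEM/F12 or RPMI plus 10% FBS received two-drug dose matrices for 72 hours. Viability came from CellTiter-Glo 2.0 luminescence and was scaled as inhibition, anchored at 0 by vehicle wells and at 1 by blank wells. Combination Emax is taken as the second-highest inhibition in the matrix, and Bliss excess as the observed combination effect less EA + EB − EA·EB, with EA and EB the single-agent effects.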

[2] = system: PF-382 (T-Lymphoblastic Leukemia)
Outline: as §1

[3] = system: SNU-C1 (Colorectal Carcinoma)
Outline: as §1

[4] = system: NCI-N87 (Gastric Carcinoma)
Outline: as §1

[5] = system: NCI-H513 (Other Solid Carcinomas)
Outline: as §1

[6] = system: TGBC11TKB (Gastric Carcinoma)
Outline: as §1

[7] = system: NH-12 (Neuroblastoma)
Outline: as §1

[8] = system: KYSE-50 (Esophageal Squamous Cell Carcinoma)
Outline: as §1

[9] = system: NCI-H1573 (Lung Adenocarcinoma)
Outline: as §1

[10] = system: RPMI-7951 (Melanoma)
Outline: as §1

[11] = system: H-EMC-SS (Chondrosarcoma)
Outline: as §1

[12] = system: GI-1 (Glioblastoma)
Outline: as §1

[13] = system: KP-2 (Pancreatic Carcinoma)
Outline: as §1

[14] = system: LOU-NH91 (Squamous Cell Lung Carcinoma)
Outline: as §1

[15] = system: OCUB-M (Breast Carcinoma)
Outline: as §1

[16] = system: KYSE-150 (Esophageal Squamous Cell Carcinoma)
Outline: as §1

[17] = system: MFE-319 (Endometrial Carcinoma)
Outline: as §1

[18] = system: NB7 (Neuroblastoma)
Outline: as §1

[19] = system: KU-19-19 (Bladder Carcinoma)
Outline: as §1

[20] = system: EMC-BAC-2 (Non-Small Cell Lung Carcinoma)
Outline: as §1

| Structure (SMILES) | combination Emax [1] | combination Emax [2] | combination Emax [3] | combination Emax [4] | combination Emax [5] | combination Emax [6] | combination Emax [7] | combination Emax [8] | combination Emax [9] | combination Emax [10] | combination Emax [11] | combination Emax [12] | combination Emax [13] | combination Emax [14] | combination Emax [15] | combination Emax [16] | combination Emax [17] | combination Emax [18] | combination Emax [19] | combination Emax [20] |
| --- | --- | --- | --- | --- | --- | --- | --- | --- | --- | --- | --- | --- | --- | --- | --- | --- | --- | --- | --- | --- |
| CCN(CCO)CCCOc1ccc2c(Nc3cc(CC(=O)Nc4cccc(F)c4)[nH]n3)ncnc2c1 [AZD2811] + O=C(c1cc(Cc2n[nH]c(=O)c3ccccc23)ccc1F)N1CCN(C(=O)C2CC2)CC1 [Olaparib] (first compound max 1 µM, 7x7, partner max 10 µM) | 0.675 | 0.893 | 0.276 | 0.293 | 0.0855 | 0.408 | 0.659 | 0.282 | 0.152 | 0.328 | 0.236 | 0.328 | 0.0558 | 0.332 | 0.805 | 0.515 | 0.245 | 0.473 | 0.381 | 0.31 |
| COc1nnc2ccc(N3CCC(c4ccc(OCCN5CCN(C)C(=O)[C@H]5C)cc4)CC3)nn12 [AZD5153] + Cc1c2c(nn1C)CSCc1cc(n(C)n1)CSc1cc(c3ccccc3c1)OCCCc1c(C(=O)O)n(C)c3c-2c(Cl)ccc13 [AZD5991] (first compound max 1 µM, 7x7, partner max 1 µM) | 0.908 | 0.986 | 0.637 | 0.551 | 0.423 | 0.789 | 0.672 | 0.713 | 0.673 | 0.825 | 0.345 | 0.961 | 0.427 | 0.705 | 1 | 0.582 | 0.985 | 0.875 | 0.775 | 0.886 |
| Cc1c2c(nn1C)CSCc1cc(n(C)n1)CSc1cc(c3ccccc3c1)OCCCc1c(C(=O)O)n(C)c3c-2c(Cl)ccc13 [AZD5991] + Cn1cnc2c(F)c(Nc3ccc(Br)cc3Cl)c(C(=O)NOCCO)cc21 [Selumetinib] (first compound max 1 µM, 7x7, partner max 3 µM) | 0.549 | 0.207 | 0.695 | 0.426 | 0.473 | 0.683 | 0.568 | 0.292 | 0.586 | 0.934 | 0.563 | 0.726 | 0.749 | 0.581 | 0.979 | 0.488 | 0.604 | 0.536 | 0.885 | 0.834 |
| CN(CCO)CC[C@H](CSc1ccccc1)Nc1ccc(S(=O)(=O)NC(=O)c2ccc(N3CCC([C@@H](O)c4ccccc4-c4ccc(Cl)cc4)CC3)cc2)cc1S(=O)(=O)C(F)(F)F [AZD4320] + CCN(CCO)CCCOc1ccc2c(Nc3cc(CC(=O)Nc4cccc(F)c4)[nH]n3)ncnc2c1 [AZD2811] (first compound max 1 µM, 7x7, partner max 1 µM) | 0.949 | 1 | 0.531 | 0.571 | 0.13 | 0.439 | 0.962 | 0.382 | 0.27 | 0.647 | 0.521 | 0.771 | 0.921 | 0.877 | 0.874 | 0.301 | 0.647 | 0.267 | 0.498 | 0.417 |
| COc1cccc(OCCCN)c1-c1cc(Nc2cnc(C#N)cn2)n[nH]1 [Prexasertib] + C=CCn1c(=O)c2cnc(Nc3ccc(N4CCN(C)CC4)cc3)nc2n1-c1cccc(C(C)(C)O)n1 [AZD1775] (first compound max 1 µM, partner max 1 µM) | 0.732 | 0.942 | 0.847 | 0.797 | 0.505 | 0.991 | 0.944 | 0.852 | 0.713 | 0.991 | 0.554 | 0.994 | 0.613 | 0.716 | 0.954 | 0.866 | 0.807 | 0.938 | 0.858 | 0.608 |
| CN(C)CCCOc1ccc(-c2ccc3ncc4c(c3c2)n(C2CCOCC2)c(=O)n4C)cn1 [AZD0156] + C[C@@H]1COCCN1C2=NC(=NC(=C2)C3(CC3)[S@](=N)(=O)C)C4=C5C=CNC5=NC=C4 [AZD6738] (first compound max 1 µM, 7x7, partner max 10 µM) | 0.751 | 0.855 | 0.489 | 0.704 | 0.315 | 0.799 | 0.901 | 0.674 | 0.58 | 0.886 | 0.402 | 0.926 | 0.158 | 0.236 | 0.494 | 0.589 | 0.683 | 0.804 | 0.869 | 0.676 |
| CN(C)CCCOc1ccc(-c2ccc3ncc4c(c3c2)n(C2CCOCC2)c(=O)n4C)cn1 [AZD0156] + O=C(c1cc(Cc2n[nH]c(=O)c3ccccc23)ccc1F)N1CCN(C(=O)C2CC2)CC1 [Olaparib] (first compound max 3 µM, partner max 3 µM) | 0.708 | 0.38 | 0.226 | 0.327 | 0.194 | 0.131 | 0.177 | 0.195 | 0.18 | 0.264 | 0.258 | 0.336 | 0.152 | 0.209 | 0.273 | 0.295 | 0.193 | 0.297 | 0.221 | 0.486 |
| CCN(CCO)CCCOc1ccc2c(Nc3cc(CC(=O)Nc4cccc(F)c4)[nH]n3)ncnc2c1 [AZD2811] + C[C@@H]1COCCN1C2=NC(=NC(=C2)C3(CC3)[S@](=N)(=O)C)C4=C5C=CNC5=NC=C4 [AZD6738] (first compound max 1 µM, 7x7, partner max 10 µM) | 0.724 | 0.916 | 0.435 | 0.744 | 0.283 | 0.791 | 0.858 | 0.507 | 0.479 | 0.856 | 0.412 | 0.922 | 0.12 | 0.27 | 0.748 | 0.533 | 0.668 | 0.603 | 0.779 | 0.459 |
| CC(=O)c1c(C)c2cnc(Nc3ccc(N4CCNCC4)cn3)nc2n(C2CCCC2)c1=O [Palbociclib] + Cc1c2c(nn1C)CSCc1cc(n(C)n1)CSc1cc(c3ccccc3c1)OCCCc1c(C(=O)O)n(C)c3c-2c(Cl)ccc13 [AZD5991] (first compound max 10 µM, 7x7, partner max 1 µM) | 0.772 | 0.633 | 0.142 | 0.417 | 0.171 | 0.355 | 0.478 | 0.353 | 0.434 | 0.732 | 0.502 | 0.455 | 0.225 | 0.35 | 0.882 | 0.585 | 0.887 | 0.576 | 0.435 | 0.643 |
| Cc1cc2ncnn2cc1Nc1ncc2c(n1)n(C1CCOCC1)c(=O)n2C [AZD7648] + C=CCn1c(=O)c2cnc(Nc3ccc(N4CCN(C)CC4)cc3)nc2n1-c1cccc(C(C)(C)O)n1 [AZD1775] (first compound max 10 µM, partner max 1 µM) | 0.329 | 0.957 | 0.392 | 0.731 | 0.431 | 0.825 | 0.848 | 0.431 | 0.308 | 0.704 | 0.53 | 0.86 | 0.187 | 0.466 | 0.448 | 0.643 | 0.68 | 0.575 | 0.749 | 0.392 |
| COc1nnc2ccc(N3CCC(c4ccc(OCCN5CCN(C)C(=O)[C@H]5C)cc4)CC3)nn12 [AZD5153] + C[C@@H]1COCCN1C2=NC(=NC(=C2)C3(CC3)[S@](=N)(=O)C)C4=C5C=CNC5=NC=C4 [AZD6738] (first compound max 1 µM, 7x7, partner max 10 µM) | 0.851 | 1 | 0.693 | 0.766 | 0.523 | 0.801 | 0.938 | 0.804 | 0.709 | 0.925 | 0.321 | 0.97 | 0.432 | 0.871 | 0.735 | 0.746 | 0.785 | 0.589 | 0.685 | 0.816 |
| CN(CCO)CC[C@H](CSc1ccccc1)Nc1ccc(S(=O)(=O)NC(=O)c2ccc(N3CCC([C@@H](O)c4ccccc4-c4ccc(Cl)cc4)CC3)cc2)cc1S(=O)(=O)C(F)(F)F [AZD4320] + C[C@@H]1COCCN1C2=NC(=NC(=C2)C3(CC3)[S@](=N)(=O)C)C4=C5C=CNC5=NC=C4 [AZD6738] (first compound max 1 µM, 7x7, partner max 10 µM) | 0.971 | 1 | 0.658 | 0.845 | 0.452 | 0.935 | 1 | 0.686 | 0.634 | 0.951 | 0.692 | 0.982 | 0.897 | 0.575 | 0.823 | 0.614 | 0.928 | 0.691 | 0.878 | 0.632 |
| NC1(C(=O)N[C@@H](CCO)c2ccc(Cl)cc2)CCN(c2ncnc3[nH]ccc23)CC1 [Capivasertib] + CC(C)n1c(=O)n(C)c2cnc3cc(F)c(-c4ccc(OCCCN5CCCCC5)nc4)cc3c21 [AZD1390] (first compound max 10 µM, 7x7, partner max 0.3 µM) | 0.258 | 0.612 | 0.528 | 0.674 | 0.171 | 0.13 | 0.363 | 0.14 | 0.195 | 0.662 | 0.432 | 0.658 | 0.102 | 0.456 | 1 | 0.375 | 0.368 | 0.736 | 0.266 | 0.462 |
